Measurements: PMC4488747, “Inhibition of P-glycoprotein Gene Expression and Function Enhances Triptolide-induced Hepatotoxicity in Mice” (Scientific Reports, 2015)
d = 2'-deoxy (DNA)

Columns and labels:
P-gp = biological target: T1, P-gp (Mus musculus, UniProt P21447); assay: P-gp function in knockdown mice assessed by digoxin plasma pharmacokinetics; type: in vivo; conditions: iv, 1 mg/kg, digoxin 1 mg/kg injection
T1 construct: from tissue; host or cells: whole living mice (in vivo, intravenous digoxin 1 mg/kg after NC-siRNA or mdr1a-1 siRNA)
Method: For validation of silence efficiency in vivo, mdr1a-1 siRNA was injected via the tail vein of mice after diluted to 5, 10 and 15 nmol with saline in 200 μl. After 48 h, the mice were euthanized and the liver was collected for measurement of the P-gp protein expression using western blot. The P-gp function in gene knockdown mice was assessed using digoxin, a known P-gp substrate. NC-siRNA or mdr1a-1 siRNA was intravenously injected 2 days prior to the injection of digoxin (1mg/kg). Blood samples were collected at 5, 15, 30, min and 1, 2, 4, 6, 8, 12 hours post digoxin dose (n = 5/time-point for each group). The digoxin concentrations in samples were quantitatively analyzed by a published LC-MS/MS method.
Toxicokinetic parameters, including area under the plasma concentration-time curve (AUC), volume of distribution (Vd), clearance (CL), mean residence time (MRT) and terminal elimination half-life (t1/2), were calculated by non-compartmental analysis using WinNonlin 5.2 software (Pharsight Corporation, CA, USA). All the data were expressed as mean ± SD. Differences between groups were compared by Student’s t-test for analysis of unpaired data or one-way ANOVA. Statistical significance was accepted at P < 0.05.

BALB/C mice [1] = assay: Liver histopathology (HE staining) in mice; type: in vivo; conditions: TP 1 mg/kg iv, 24 h, TP = NC-siRNA group, tariquidar and mdr1a-1 siRNA = given before TP
Method: For TP plasma kinetic study and toxicological evaluation, mice were divided into four groups (n = 5 each) to collect blood and tissue samples: (1) normal + saline group; (2) 1.0 mg/kg TP + 15 nmol NC-siRNA group; (3) 1.0 mg/kg TP + 15 nmol mdr1a-siRNA group; (4) 1.0 mg/kg TP + 10 mg/kg tariquidar group. In order to avoid the complication caused by drug absorption or possible intestinal first-pass effect, TP and the inhibitor were intravenously administrated to mice. The siRNA group was intravenously injected with NC-siRNA or mdr1a-siRNA 2 days before TP dose. For TP + tariquidar group, the mice were received an intravenous tariquidar dose 20 min prior to the TP injection. Blood samples were collected at 2, 5, 10, 15, 30, 60 and 120 min after TP dosing. To assess the liver exposure of TP, liver tissue samples were collected from another set of mice at 5, 30, 60 and 120 min after dosing. […] The concentrations of TP in plasma and liver tissue were measured by a validated LC-MS/MS method. […]
(§1) At 24 h of TP treatment, blood and liver tissue samples were collected from the mice in plasma kinetic study. Serum ALT and AST levels were determined with a CL8000 automated biochemical analyzer (Shimadzu, Japan) after serum was separated by centrifugation at 900 g for 10 min. […] The total protein concentration was quantified by the BCA assay. Bcl-2 and Bax proteins were measured by western blot.

Bcl-2/Bax = assay: Bcl-2 and Bax expression in mouse liver (western blot); type: in vivo; conditions: mice, TP 1 mg/kg iv, 24 h; tariquidar and mdr1a-siRNA = given before TP
Method: For protein extraction, the cells or mice liver tissues were homogenized in RIPA buffer and then centrifuged at 14,000 g at 4 °C for 30 min. The supernatant was collected and the protein concentration was measured using BCA assay. The sample (50 μg protein/sample) was then loaded on 12% polyacrylamide gels and transferred to polyvinylidene difluoride membranes (Millipore, USA). After blocked by 3% bovine serum albumin, the membranes were incubated with primary antibodies and HRP-conjugated secondary antibody, and then detected using the enhanced chemiluminescence plus detection system (Molecular Device, Lmax, USA). The density of each band was quantified by using image analysis software (Science Lab 2005 Image Guage; Tokyo, Japan).
as §1, with “min. Liver tissue samples were divided into two parts, the first half was kept at −80 °C until MDA and SOD measurements using MDA and SOD assay kits (Nanjing Jiancheng Bioengineering Institute, Nanjing, China) according to the manufacturer’s instructions.” for “min.”

BALB/C mice [2] = assay: Serum ALT and AST (TP-induced hepatotoxicity) in mice; type: in vivo; conditions: TP 1 mg/kg iv with P-gp modulator, 24 h after TP
Method: For TP plasma kinetic study and toxicological evaluation, mice were divided into four groups (n = 5 each) to collect blood and tissue samples: (1) normal + saline group; (2) 1.0 mg/kg TP + 15 nmol NC-siRNA group; (3) 1.0 mg/kg TP + 15 nmol mdr1a-siRNA group; (4) 1.0 mg/kg TP + 10 mg/kg tariquidar group. In order to avoid the complication caused by drug absorption or possible intestinal first-pass effect, TP and the inhibitor were intravenously administrated to mice. The siRNA group was intravenously injected with NC-siRNA or mdr1a-siRNA 2 days before TP dose. For TP + tariquidar group, the mice were received an intravenous tariquidar dose 20 min prior to the TP injection. Blood samples were collected at 2, 5, 10, 15, 30, 60 and 120 min after TP dosing. To assess the liver exposure of TP, liver tissue samples were collected from another set of mice at 5, 30, 60 and 120 min after dosing. Three TP groups were design for this experiment, including TP + NC-siRNA group, TP + mdr1a-siRNA group and TP + tariquidar group. The liver tissue samples were weighed and then homogenized in 10 volume (w:v) of ice-cold saline. The concentrations of TP in plasma and liver tissue were measured by a validated LC-MS/MS method. Prior to the above animal study, a preliminary experiment was performed to assess the possible differences in liver P-gp protein expression (Figure S1) and TP plasma kinetics between NC-siRNA treated mice and normal mice (with saline) (Figure S2 and supplemental Table 1). […] Therefore, NC-siRNA group was used as the control in the following animal study.
At 24 h of TP treatment, blood and liver tissue samples were collected from the mice in plasma kinetic study. Serum ALT and AST levels were determined with a CL8000 automated biochemical analyzer (Shimadzu, Japan) after serum was separated by centrifugation at 900 g for 10 min. Liver tissue samples were divided into two parts, the first half was kept at −80 °C until MDA and SOD measurements using MDA and SOD assay kits (Nanjing Jiancheng Bioengineering Institute, Nanjing, China) according to the manufacturer’s instructions. The other half was fixed with 4% paraformaldehyde solution and then dehydrated, embedded in paraffin and sectioned at a thickness of 5 μm. Four paraffin sections from each mouse were dewaxed, rehydrated and stained with hematoxylin-eosin (HE) for overall morphological evaluation. The total protein concentration was quantified by the BCA assay. Bcl-2 and Bax proteins were measured by western blot.

[3] = Preliminary experiment: effect of NC-siRNA on pharmacokinetics of TP in mice; type: in vivo; conditions: TP 1.0 mg/kg
Method: Effect of NC-siRNA on pharmacokinetic of TP
Mice were divided into two groups to collect blood samples (n=5 each): (1) 1.0 mg/kg TP + saline group; (2) 1.0 mg/kg TP + 15 nmol NC-siRNA group. The siRNA group was intravenously injected with NC-siRNA 2 days before TP dose. Blood samples were collected at 2, 5, 10, 15, 30, 60 and 120 min after TP dosing. The concentrations of TP in plasma and liver were measured by a validated LC-MS/MS method.

mdr1a mRNA = assay: RNAi knockdown of mdr1a mRNA in CT26.WT cells (real-time PCR); type: cell-based, mouse; conditions: siRNA 80 pM with Lipofectamin 2000, 48 h after transfection
Method: CT26.WT cells, a mouse colon carcinoma cell line, were obtained from ATCC and maintained in RPMI-1640 supplemented with 10% fetal bovine serum. Cells were seeded to 6-well plates at a density of 5 × 10^5 cells/well and cultured for 24 h. Transfection was performed in Opti-MEM (Invitrogen, Carlsbad, CA, USA) with synthetic siRNA (80 pM) by using Lipofectamin 2000 (Invitrogen, Carlsbad, CA, USA) for 6 h and the medium was replaced with fresh RPMI-1640. This condition was optimized in our preliminary experiments based on the transfection efficiency and the cellular viability. Following incubation for 48 h, the cells were washed three times with phosphate buffered saline buffer (PBS) and total RNA and protein were collected.
Total RNA from CT26. WT cells was extracted with Trizol (Invitrogen, Carlsbad, CA, USA) according to the manufacturer’s instructions. RNA samples (1 μg) were reverse transcribed by adding oligo(dT)18 (MBI Fermentas, USA), dNTP, RNase inhibitor, and M-MLV reverse transcriptase (Takara, Japan), holding at room temperature for 10 min and incubating at 42 °C for 60 min. The samples were heated at 72 °C to inactivate enzymes for 10 min and stored at −20 °C. Real-time PCR was performed using sense and antisense primers. […] The relative amount of target mRNA was determined using the comparative threshold (Ct) method by normalizing target mRNA Ct values to those for β-actin (ΔCt). […]

T1 sequence (P21447 whole entry): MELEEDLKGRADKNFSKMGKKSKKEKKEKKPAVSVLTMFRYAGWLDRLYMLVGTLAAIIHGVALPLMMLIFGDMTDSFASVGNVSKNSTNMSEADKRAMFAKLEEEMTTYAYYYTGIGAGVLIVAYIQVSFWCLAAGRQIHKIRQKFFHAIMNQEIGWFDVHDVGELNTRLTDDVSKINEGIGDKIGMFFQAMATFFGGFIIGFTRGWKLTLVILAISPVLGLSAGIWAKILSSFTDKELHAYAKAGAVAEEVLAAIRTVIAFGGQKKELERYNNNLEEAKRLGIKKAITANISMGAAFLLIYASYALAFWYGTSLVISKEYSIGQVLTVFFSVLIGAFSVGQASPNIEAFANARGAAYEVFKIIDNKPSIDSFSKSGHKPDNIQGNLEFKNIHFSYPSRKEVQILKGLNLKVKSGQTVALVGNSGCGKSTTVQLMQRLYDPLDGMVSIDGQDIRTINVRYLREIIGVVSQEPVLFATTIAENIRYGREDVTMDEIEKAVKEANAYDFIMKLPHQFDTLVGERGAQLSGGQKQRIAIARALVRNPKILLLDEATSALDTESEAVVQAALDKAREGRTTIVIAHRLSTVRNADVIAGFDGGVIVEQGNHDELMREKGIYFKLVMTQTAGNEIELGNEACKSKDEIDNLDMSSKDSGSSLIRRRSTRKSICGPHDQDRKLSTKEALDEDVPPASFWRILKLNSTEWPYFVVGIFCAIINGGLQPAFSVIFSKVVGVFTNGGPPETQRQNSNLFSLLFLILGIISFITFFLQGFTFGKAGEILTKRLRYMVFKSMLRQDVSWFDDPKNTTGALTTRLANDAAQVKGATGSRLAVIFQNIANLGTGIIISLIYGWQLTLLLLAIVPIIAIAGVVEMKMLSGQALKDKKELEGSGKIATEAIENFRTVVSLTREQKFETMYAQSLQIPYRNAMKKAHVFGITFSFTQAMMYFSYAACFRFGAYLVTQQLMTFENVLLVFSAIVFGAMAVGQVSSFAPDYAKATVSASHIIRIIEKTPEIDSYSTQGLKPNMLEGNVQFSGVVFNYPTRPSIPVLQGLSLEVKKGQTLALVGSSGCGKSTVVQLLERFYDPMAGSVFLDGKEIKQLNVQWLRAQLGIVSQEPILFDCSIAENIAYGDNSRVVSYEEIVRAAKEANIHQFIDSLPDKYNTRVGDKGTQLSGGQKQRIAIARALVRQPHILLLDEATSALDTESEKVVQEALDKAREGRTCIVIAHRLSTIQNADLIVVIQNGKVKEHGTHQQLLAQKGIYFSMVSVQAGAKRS

For C[C@H]1O[C@@H](O[C@H]2[C@@H](O)C[C@H](O[C@H]3[C@@H](O)C[C@H](O[C@H]4CC[C@@]5(C)[C@H](CC[C@@H]6[C@@H]5C[C@@H](O)[C@]5(C)[C@@H](C7=CC(=O)OC7)CC[C@]65O)C4)O[C@@H]3C)O[C@@H]2C)C[C@H](O)[C@@H]1O [Digoxin, digoxin], the AUC(0-t) (P-gp; NC-siRNA iv 2 days prior) was 3360 ± 739 ng·h/mL, the Cmax (P-gp; NC-siRNA iv 2 days prior) was 1740 ± 574 ng/mL and the MRT (P-gp; NC-siRNA iv 2 days prior) was 3.7 ± 0.3 h. For the same compound, the Vd (P-gp; NC-siRNA iv 2 days prior) was 2 ± 0.5 L/kg, the clearance (P-gp; NC-siRNA iv 2 days prior) was 4.21 mL/min/kg and the half-life (P-gp; NC-siRNA iv 2 days prior) was 5.7 ± 1.3 h. It also gave an AUC(0-t) (P-gp; mdr1a-1 siRNA iv 2 days prior) of 8770 ± 1450 ng·h/mL, a Cmax (P-gp; mdr1a-1 siRNA iv 2 days prior) of 2260 ± 267 ng/mL and an MRT (P-gp; mdr1a-1 siRNA iv 2 days prior) of 3.8 ± 0.4 h. It also gave a Vd (P-gp; mdr1a-1 siRNA iv 2 days prior) of 0.6 ± 0.08 L/kg, a clearance (P-gp; mdr1a-1 siRNA iv 2 days prior) of 1.66 mL/min/kg and a half-life (P-gp; mdr1a-1 siRNA iv 2 days prior) of 4 ± 1.4 h.

With COc1cc2c(cc1OC)CN(CCc1ccc(NC(=O)c3cc(OC)c(OC)cc3NC(=O)c3cnc4ccccc4c3)cc1)CC2 [tariquidar, Tariquidar, reference compound] the “Histopathological changes in liver (HE)” value (BALB/C mice [1]) was “more severe”, the “Bcl-2/Bax ratio in liver” value (Bcl-2/Bax) was “markedly reduced the ratio” and the “Serum ALT level, folds of the TP+NC-siRNA group” value (BALB/C mice [2]) was 1.2 folds. The “Serum AST level, folds of the TP+NC-siRNA group” value (BALB/C mice [2]) was 1.9 folds.

For “NC-siRNA: negative control siRNA, sense 5′-UUCUCCGAACGUGUCACGUTT-3′ (antisense ACGUGACACGUUCGGAGAATT; sugars by position and backbone not given here; 3' and 5' ends modified with methylation and cholesterol) [reference compound]”, the “Differences in TP plasma concentrations and kinetic parameters, NC-siRNA treated vs normal (saline) mice” value [3] was “No significant differences”.

For “mdr1a-2: murine mdr1a siRNA, sense 5′-r(AGA AGGAAC UAG AAG GUU CUG) d(TT)-3′ (sense AGAAGGAACUAGAAGGUUCUG; antisense CAGAACCUUCUAGUUCCUUCU; RNA, 3' dTdT, backbone and methylation of C not given here; 3' and 5' ends modified with methylation and cholesterol)”, the “Silencing efficiency on mdr1a mRNA” value (mdr1a mRNA) was 51%.

In the case of “mdr1a-3: murine mdr1a siRNA, sense 5′-GGCUGGACAAGCUGUGCAUGG-3′ (antisense AUGCACAGCUUGUCCAGCCAA; sugars by position and backbone not given here; 3' and 5' ends modified with methylation and cholesterol)”, the “Silencing efficiency on mdr1a mRNA” value (mdr1a mRNA) is reported as 46%.
